From patent publication US20260226493A1, “HERBICIDE RESISTANT PLANTS” (SYNGENTA CROP PROTECTION AG, priority 2023, published 2026)

Legend:
Type in all cases: biochemical
[1] = biological target: T1, Arabidopsis thaliana BIO3-BIO1 (BioDA) mutants (Arabidopsis thaliana, UniProt B0F481, F348Q); assay: BIO3-BIO1 mutant enzyme activity in the presence of herbicide, percentage inhibition (fluorometric DAPA assay); details: read-out: percentage inhibition
T1 construct: with the predicted N-terminal mitochondrial transit peptide removed; 6xHis-tag (N); thrombin cleavage site (N); made in house; host or cells: E. coli BL21 (DE3) bioA
T1 sequence (B0F481 23-833 F348Q): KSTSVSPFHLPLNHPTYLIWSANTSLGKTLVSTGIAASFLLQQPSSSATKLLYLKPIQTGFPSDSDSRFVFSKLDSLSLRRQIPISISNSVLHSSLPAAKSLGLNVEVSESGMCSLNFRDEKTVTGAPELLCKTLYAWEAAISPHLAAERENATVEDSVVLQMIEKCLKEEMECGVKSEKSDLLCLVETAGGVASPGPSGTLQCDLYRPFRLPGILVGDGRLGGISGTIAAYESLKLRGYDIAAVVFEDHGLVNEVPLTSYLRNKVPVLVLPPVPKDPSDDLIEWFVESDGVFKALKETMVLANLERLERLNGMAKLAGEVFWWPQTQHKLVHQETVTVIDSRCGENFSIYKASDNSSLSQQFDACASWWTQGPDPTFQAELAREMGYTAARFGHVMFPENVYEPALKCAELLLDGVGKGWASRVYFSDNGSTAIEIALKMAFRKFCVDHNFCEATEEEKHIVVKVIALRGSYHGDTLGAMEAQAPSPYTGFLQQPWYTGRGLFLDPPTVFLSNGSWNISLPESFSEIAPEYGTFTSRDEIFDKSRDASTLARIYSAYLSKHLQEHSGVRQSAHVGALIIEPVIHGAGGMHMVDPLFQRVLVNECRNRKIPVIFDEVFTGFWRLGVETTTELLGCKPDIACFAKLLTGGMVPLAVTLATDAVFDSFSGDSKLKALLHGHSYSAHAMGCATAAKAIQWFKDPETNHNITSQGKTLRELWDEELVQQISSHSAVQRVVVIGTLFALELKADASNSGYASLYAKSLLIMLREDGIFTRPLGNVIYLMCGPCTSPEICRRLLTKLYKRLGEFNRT
Method in brief: (§1)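 Percentage inhibition compares activity at one of three herbicide concentrations against DMSO, from o-phthalaldehyde-derivatised DAPA fluorescence (ex 410, em 470 nm). Purified N-His BIO3-BIO1 variants (50 nM, E. coli-expressed) saw herbicide 10 min at 20 °C in pH 8.6 EPPS buffer, then 20 μM KAPA plus 100 μM spermidine for 75 min at 20 °C.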

[2] = biological target: T2, Arabidopsis thaliana BIO3-BIO1 (BioDA) mutants (Arabidopsis thaliana, UniProt B0F481, F370L); assay: as above; details: read-out: percentage inhibition
T2 construct: with the predicted N-terminal mitochondrial transit peptide removed; 6xHis-tag (N); thrombin cleavage site (N); made in house; host or cells: E. coli BL21 (DE3) bioA
T2 sequence (B0F481 23-833 F370L): as the sequence (B0F481 23-833 F348Q) above, with Q326F, F348L counted along it
Method in brief: as §1

[3] = biological target: T3, Arabidopsis thaliana BIO3-BIO1 (BioDA) mutants (Arabidopsis thaliana, UniProt B0F481, G608A); assay: as above; details: read-out: percentage inhibition
T3 construct: with the predicted N-terminal mitochondrial transit peptide removed; 6xHis-tag (N); thrombin cleavage site (N); made in house; host or cells: E. coli BL21 (DE3) bioA
T3 sequence (B0F481 23-833 G608A): as the sequence (B0F481 23-833 F348Q) above, with Q326F, G586A counted along it
Method in brief: as §1

[4] = biological target: T4, Arabidopsis thaliana BIO3-BIO1 (BioDA) mutants (Arabidopsis thaliana, UniProt B0F481, S390C); assay: as above; details: read-out: percentage inhibition
T4 construct: with the predicted N-terminal mitochondrial transit peptide removed; 6xHis-tag (N); thrombin cleavage site (N); made in house; host or cells: E. coli BL21 (DE3) bioA
T4 sequence (B0F481 23-833 S390C): as the sequence (B0F481 23-833 F348Q) above, with Q326F, S368C counted along it
Method in brief: as §1

[5] = biological target: T5, Arabidopsis thaliana BIO3-BIO1 (BioDA) mutants (Arabidopsis thaliana, UniProt B0F481, S509K); assay: as above; details: read-out: percentage inhibition
T5 construct: with the predicted N-terminal mitochondrial transit peptide removed; 6xHis-tag (N); thrombin cleavage site (N); made in house; host or cells: E. coli BL21 (DE3) bioA
T5 sequence (B0F481 23-833 S509K): as the sequence (B0F481 23-833 F348Q) above, with Q326F, S487K counted along it
Method in brief: as §1

[6] = test system: Ostreococcus tauri BioDA A374D; assay: BioDA enzyme activity with DMSO or herbicide in vitro
Excerpt: (§2) A pet-24 plasmid containing a DNA sequence encoding each identified variant mutant of BIO3-BIO1 derived from Arabidopsis thaliana from example 5 above, as shown in Table 13 below and as shown in full in SEQ ID NOs: 15 to 155, codon-optimised for expression in E. coli, with an N-terminal 6×His-tag and thrombin cleavage site and under control of a T7 promoter, and was synthesised by Twist Bioscience, in a similar manner to SEQ ID NO:311. These plasmids were then expressed in E. coli BL21 (DE3) bioA with 50 μg/mL kanamycin and 25 μg/mL chloramphenicol selection. Overnight cultures grown at 37° C. were used to inoculate 8×500 mL AIM in shake flasks at a ratio of 1:100. Cultures were grown at 37° C., 200 rpm for 3.5 hours and then overnight at 20° C. Cells were harvested by centrifugation for 30 minutes at 10 000 g. Cells were stored at −80° C. until extraction. 30 g of cell pellet from was thawed in 120 mL of IMAC buffer A (20 mM HEPES pH7.5, 25 mM imidazole, 500 mM sodium chloride, 0.15 mM pyridoxal phosphate, 0.5 mM TCEP, 1× complete Protease Inhibitor Tablet (Roche)). The resuspension was passed through a cell disrupter at 18 000 PSI and centrifuged at 50 000 g for 25 minutes at 4° C. The His-tagged BIO3-BIO1 protein was purified from the extract supernatant on an AKTA avant chromatography system (Cytiva) using a HisTrap FF column and eluted in IMAC buffer B ((20 mM HEPES pH7.5, 500 mM imidazole, 500 mM sodium chloride, 0.15 mM pyridoxal phosphate, 0.5 mM TCEP) followed by SEC using a HiLoad 26/60 Superdex200 column in SEC buffer (25 mM HEPES pH7.5, 150 mM sodium chloride, 0.15 mM pyridoxal phosphate, 0.5 mM TCEP). Protein concentration was measured and calculated using the absorbance at 280 nm. Extracts were diluted 1 in 4 and 10 uL was analysed by SDS PAGE.
(§3) To measure BIO3-BIO1 mutant enzyme activity in the presence of herbicide, herbicides were incubated with 20 μL of enzyme mix (100 mM EPPS pH 8.6, 0.1 mM pyridoxal phosphate, 0.1 mg/mL BSA, 50 nM BIO3-BIO1 enzyme) for 10 minutes at 20° C. in a well of a 96-well half-area black plate, followed by the addition of 20 μL of substrate mix (final concentration of 100 mM EPPS pH 8.6, 0.1 mM pyridoxal phosphate, 0.1 mg/mL BSA, 100 μM spermidine, 20 μM KAPA, 100 mM NaCO3) and further incubation for 75 minutes at 20° C. The reaction was terminated by the addition of 50 μL of derivatisation mix (final concentration of 250 mM borate NaOH pH 9.4, 3.6 mM o-phthalaldehyde, 7 mM β-mercaptoethanol, 17% (v/v) ethanol, 3.6% (v/v) methanol). The fluorescent product produced by the reaction of DAPA with o-phthalaldehyde and 7 mM β-mercaptoethanol was measured at 470 nm after excitation at 410 nm. The percentage inhibition was calculated as the activity in the presence of one of three concentrations of each herbicide compound A to M (note that the compounds labelled as A to M are identified hereinabove in the relevant section of the description) as a percentage of the activity in DMSO (Table 12 and 13). The percentage activity versus WT was also calculated and is shown in Table 13 and 14 (NT indicates mutation not tested in table 13, note that these mutations are tested at different compound concentrations for compounds L, M and C, and the results are shown in table 14).
(§4) The activity of various wild-type BioDA and variant enzymes was also tested when treated with DMSO or herbicide in vitro.
(§5) Protein of Schizosaccharomyces japonicus BioDA (SEQ ID NO:13), Nannochloropsis gaditana BioDA (SEQ ID NO:3), Selaginella moellendorffii BioDA (SEQ ID NO:319), Quercus robur BioDA (SEQ ID NOA11), Ostreococcus tauri BioDA (SEQ ID NO:9), and the variants of Ostreococcus tauri BioDA A374D, F332A and P407A (SEQ ID Nos:321-323) was prepared using the method in Example 6. BioDA enzyme activity in the presence of herbicide or DMSO in vitro for each of the proteins was assayed according to the enzyme assay method above. The results are shown in Table 26 provided below in the “TABLES” section.

[7] = test system: Ostreococcus tauri BioDA F332A; assay: as above
Excerpt: as §2, §3, §4, §5

[8] = test system: Ostreococcus tauri BioDA P407A; assay: as above
Excerpt: as §2, §3, §4, §5

## CCOC(=O)c1nn(-c2ccc3c(c2)OC(F)(F)C(F)(F)O3)c2cccc(C(C)=O)c2c1=O [Compound A, ethyl 5-acetyl-4-oxo-1-(2,2,3,3-tetrafluoro-1,4-benzodioxin-6-yl)cinnoline-3-carboxylate]
[1]
  inhibition at 1 µM: 7%
[2]
  inhibition at 1 µM: 15%
[3]
  inhibition at 1 µM: 10%
[4]
  inhibition at 1 µM: 21%
[5]
  inhibition at 1 µM: 0%

## CC(O)C(N)CCCCC(=O)O.Cl (centres unmarked) [Compound B, [5-carboxy-1-(1-hydroxyethyl)pentyl]ammonium chloride]
[6]; 200 μM
  % Inhibition relative to DMSO treatment: 95%
[7]; 200 μM
  % Inhibition relative to DMSO treatment: 66%
[8]; 200 μM
  % Inhibition relative to DMSO treatment: 46%

## CCn1c(C)c(-c2ccc(F)cc2F)c(=O)c(C(=O)O)c1-c1ccc(Cl)c(Cl)c1 [Compound C, 2-(3,4-dichlorophenyl)-5-(2,4-difluorophenyl)-1-ethyl-6-methyl-4-oxo-pyridine-3-carboxylic acid]
[1]
  inhibition at 0.2 µM: 3%
  inhibition at 1 µM: 0%
  inhibition at 5 µM: 25%
[2]
  inhibition at 0.2 µM: 19%
  inhibition at 1 µM: 24%
  inhibition at 5 µM: 82%
[3]
  inhibition at 0.2 µM: 11%
  inhibition at 1 µM: 42%
  inhibition at 5 µM: 81%
[4]
  inhibition at 0.2 µM: 27%
  inhibition at 1 µM: 55%
  inhibition at 5 µM: 83%
[5]
  inhibition at 0.2 µM: 54%
  inhibition at 1 µM: 88%
  inhibition at 5 µM: 95%

## CCn1c(C)c(-c2cc(OC(F)(F)F)ccc2Cl)c(=O)c(C(=O)O)c1-c1ccc(Cl)c(Cl)c1 [Compound D, 5-[2-chloro-5-(trifluoromethoxy)phenyl]-2-(3,4-dichlorophenyl)-1-ethyl-6-methyl-4-oxo-pyridine-3-carboxylic acid]
[6]; 0.5 μM
  % Inhibition relative to DMSO treatment: 82%
[6]; 5 μM
  % Inhibition relative to DMSO treatment: 95%
[7]; 0.5 μM
  % Inhibition relative to DMSO treatment: 0%
[7]; 5 μM
  % Inhibition relative to DMSO treatment: 7%
[8]; 0.5 μM
  % Inhibition relative to DMSO treatment: 4%
[8]; 5 μM
  % Inhibition relative to DMSO treatment: 26%

## CCn1c(Cn2ccc(C(F)(F)F)n2)cc(=O)c(C(=O)O)c1-c1ccc(Cl)c(Cl)c1 [Compound L, 2-(3,4-dichlorophenyl)-1-ethyl-4-oxo-6-[[3-(trifluoromethyl)pyrazol-1-yl]methyl]pyridine-3-carboxylic acid]
[1]
  inhibition at 0.01 µM: 0%
  inhibition at 0.075 µM: 0%
  inhibition at 0.5 µM: 3%
[2]
  inhibition at 0.01 µM: 0%
  inhibition at 0.075 µM: 14%
  inhibition at 0.5 µM: 38%
[3]
  inhibition at 0.01 µM: 6%
  inhibition at 0.075 µM: 17%
  inhibition at 0.5 µM: 68%
[6]; 31 μM
  % Inhibition relative to DMSO treatment: 98%
[6]; 500 μM
  % Inhibition relative to DMSO treatment: 93%
[7]; 31 μM
  % Inhibition relative to DMSO treatment: 4%
[7]; 500 μM
  % Inhibition relative to DMSO treatment: 53%
[8]; 31 μM
  % Inhibition relative to DMSO treatment: 58%
[8]; 500 μM
  % Inhibition relative to DMSO treatment: 94%

## CCn1c(-c2ccc(Cl)c(Cl)c2)c(C(=O)O)c(=O)c2cc(F)ccc21 [Compound M, 2-(3,4-dichlorophenyl)-1-ethyl-6-fluoro-4-oxo-quinoline-3-carboxylic acid]
[1]
  inhibition at 0.2 µM: 0%
  inhibition at 1 µM: 0%
  inhibition at 5 µM: 16%
[2]
  inhibition at 0.2 µM: 0%
  inhibition at 1 µM: 25%
  inhibition at 5 µM: 80%
[3]
  inhibition at 0.2 µM: 12%
  inhibition at 1 µM: 38%
  inhibition at 5 µM: 74%
[4]
  inhibition at 0.2 µM: 16%
  inhibition at 1 µM: 44%
  inhibition at 5 µM: 74%
[5]
  inhibition at 0.2 µM: 41%
  inhibition at 1 µM: 77%
  inhibition at 5 µM: 90%
[6]; 31 μM
  % Inhibition relative to DMSO treatment: 94%
[6]; 500 μM
  % Inhibition relative to DMSO treatment: 93%
[7]; 31 μM
  % Inhibition relative to DMSO treatment: 7%
[7]; 500 μM
  % Inhibition relative to DMSO treatment: 46%
[8]; 31 μM
  % Inhibition relative to DMSO treatment: 37%
[8]; 500 μM
  % Inhibition relative to DMSO treatment: 92%
